Measured values published in patent US20080090734A1, “DRUG SCREENING AND TARGET IDENTIFICATION USING SPR IMAGING OF TARGET PROTEIN ARRAYS” (The Trustees of California State University, priority 2006, published 2008).

test system: A. baumannii clinical isolate LAC 17; experiment: Antibiotic susceptibility profile; format: cell-based, Acinetobacter baumannii; parameters: key: Resistance; Intermediate; Susceptible; settings: not given
From the text: (§1) We obtained over thirty clinical isolates of A. baumannii from nosocomial infections in New York City and Los Angeles. […] Only antibiotics with breakpoints for A. baumannii were used. […] Isolates LA 01 to 20 were acquired from Los Angels County while NY-A to NY-H were obtained from New York City.
(§2) Antibiotic susceptibility profiles of clinical isolates of A. baumannii and reference strains. R, I, and S denote Resistance, Intermediate and Susceptible, respectively. Genetic Profiling of Clinical Isolates of A. baumannii

| Structure (SMILES) | Antibiotic susceptibility |
| --- | --- |
| CN(C)[C@@H]1C(O)=C(C(N)=O)C(=O)[C@@]2(O)C(O)=C3C(=O)c4c(O)cccc4[C@@](C)(O)[C@H]3C[C@@H]12 [TET, Tetracycline] | R |

test system: A. baumannii clinical isolate LAC 18; experiment: Antibiotic susceptibility profile; format: cell-based, Acinetobacter baumannii; parameters: key: Resistance; Intermediate; Susceptible; settings: not given
From the text: as §1, §2

| Structure (SMILES) | Antibiotic susceptibility |
| --- | --- |
| CN(C)[C@@H]1C(O)=C(C(N)=O)C(=O)[C@@]2(O)C(O)=C3C(=O)c4c(O)cccc4[C@@](C)(O)[C@H]3C[C@@H]12 [TET, Tetracycline] | R |

test system: A. baumannii clinical isolate LAC 19; experiment: Antibiotic susceptibility profile; format: cell-based, Acinetobacter baumannii; parameters: key: Resistance; Intermediate; Susceptible; settings: not given
From the text: as §1, §2

| Structure (SMILES) | Antibiotic susceptibility |
| --- | --- |
| CN(C)[C@@H]1C(O)=C(C(N)=O)C(=O)[C@@]2(O)C(O)=C3C(=O)c4c(O)cccc4[C@@](C)(O)[C@H]3C[C@@H]12 [TET, Tetracycline] | I |

test system: A. baumannii clinical isolate LAC 20; experiment: Antibiotic susceptibility profile; format: cell-based, Acinetobacter baumannii; parameters: key: Resistance; Intermediate; Susceptible; settings: not given
From the text: as §1, §2

| Structure (SMILES) | Antibiotic susceptibility |
| --- | --- |
| CN(C)[C@@H]1C(O)=C(C(N)=O)C(=O)[C@@]2(O)C(O)=C3C(=O)c4c(O)cccc4[C@@](C)(O)[C@H]3C[C@@H]12 [TET, Tetracycline] | R |

test system: A. baumannii clinical isolate NY A; experiment: Antibiotic susceptibility profile; format: cell-based, Acinetobacter baumannii; parameters: key: Resistance; Intermediate; Susceptible; settings: not given
From the text: as §1, §2

| Structure (SMILES) | Antibiotic susceptibility |
| --- | --- |
| CN(C)[C@@H]1C(O)=C(C(N)=O)C(=O)[C@@]2(O)C(O)=C3C(=O)c4c(O)cccc4[C@@](C)(O)[C@H]3C[C@@H]12 [TET, Tetracycline] | I |

test system: A. baumannii clinical isolate NY B; experiment: Antibiotic susceptibility profile; format: cell-based, Acinetobacter baumannii; parameters: key: Resistance; Intermediate; Susceptible; settings: not given
From the text: as §1, §2

| Structure (SMILES) | Antibiotic susceptibility |
| --- | --- |
| CN(C)[C@@H]1C(O)=C(C(N)=O)C(=O)[C@@]2(O)C(O)=C3C(=O)c4c(O)cccc4[C@@](C)(O)[C@H]3C[C@@H]12 [TET, Tetracycline] | R |

test system: A. baumannii clinical isolate NY C; experiment: Antibiotic susceptibility profile; format: cell-based, Acinetobacter baumannii; parameters: key: Resistance; Intermediate; Susceptible; settings: not given
From the text: as §1, §2

| Structure (SMILES) | Antibiotic susceptibility |
| --- | --- |
| CN(C)[C@@H]1C(O)=C(C(N)=O)C(=O)[C@@]2(O)C(O)=C3C(=O)c4c(O)cccc4[C@@](C)(O)[C@H]3C[C@@H]12 [TET, Tetracycline] | R |

test system: A. baumannii clinical isolate NY D; experiment: Antibiotic susceptibility profile; format: cell-based, Acinetobacter baumannii; parameters: key: Resistance; Intermediate; Susceptible; settings: not given
From the text: as §1, §2

| Structure (SMILES) | Antibiotic susceptibility |
| --- | --- |
| CN(C)[C@@H]1C(O)=C(C(N)=O)C(=O)[C@@]2(O)C(O)=C3C(=O)c4c(O)cccc4[C@@](C)(O)[C@H]3C[C@@H]12 [TET, Tetracycline] | R |

test system: A. baumannii clinical isolate NY E; experiment: Antibiotic susceptibility profile; format: cell-based, Acinetobacter baumannii; parameters: key: Resistance; Intermediate; Susceptible; settings: not given
From the text: as §1, §2

| Structure (SMILES) | Antibiotic susceptibility |
| --- | --- |
| CN(C)[C@@H]1C(O)=C(C(N)=O)C(=O)[C@@]2(O)C(O)=C3C(=O)c4c(O)cccc4[C@@](C)(O)[C@H]3C[C@@H]12 [TET, Tetracycline] | R |

test system: A. baumannii clinical isolate NY F; experiment: Antibiotic susceptibility profile; format: cell-based, Acinetobacter baumannii; parameters: key: Resistance; Intermediate; Susceptible; settings: not given
From the text: as §1, §2

| Structure (SMILES) | Antibiotic susceptibility |
| --- | --- |
| CN(C)[C@@H]1C(O)=C(C(N)=O)C(=O)[C@@]2(O)C(O)=C3C(=O)c4c(O)cccc4[C@@](C)(O)[C@H]3C[C@@H]12 [TET, Tetracycline] | R |

test system: A. baumannii clinical isolate NY G; experiment: Antibiotic susceptibility profile; format: cell-based, Acinetobacter baumannii; parameters: key: Resistance; Intermediate; Susceptible; settings: not given
From the text: as §1, §2

| Structure (SMILES) | Antibiotic susceptibility |
| --- | --- |
| CN(C)[C@@H]1C(O)=C(C(N)=O)C(=O)[C@@]2(O)C(O)=C3C(=O)c4c(O)cccc4[C@@](C)(O)[C@H]3C[C@@H]12 [TET, Tetracycline] | R |

test system: A. baumannii clinical isolate NY H; experiment: Antibiotic susceptibility profile; format: cell-based, Acinetobacter baumannii; parameters: key: Resistance; Intermediate; Susceptible; settings: not given
From the text: as §1, §2

| Structure (SMILES) | Antibiotic susceptibility |
| --- | --- |
| CN(C)[C@@H]1C(O)=C(C(N)=O)C(=O)[C@@]2(O)C(O)=C3C(=O)c4c(O)cccc4[C@@](C)(O)[C@H]3C[C@@H]12 [TET, Tetracycline] | R |

test system: A. baumannii reference strain 15839; experiment: Antibiotic susceptibility profile; format: cell-based, Acinetobacter baumannii; parameters: key: Resistance; Intermediate; Susceptible; settings: strain 15839 (ATCC)
From the text: as §1, §2

| Structure (SMILES) | Antibiotic susceptibility |
| --- | --- |
| CN(C)[C@@H]1C(O)=C(C(N)=O)C(=O)[C@@]2(O)C(O)=C3C(=O)c4c(O)cccc4[C@@](C)(O)[C@H]3C[C@@H]12 [TET, Tetracycline] | R |

test system: A. baumannii reference strain 17978; experiment: Antibiotic susceptibility profile; format: cell-based, Acinetobacter baumannii; parameters: key: Resistance; Intermediate; Susceptible; settings: strain 17978 (ATCC)
From the text: as §1, §2

| Structure (SMILES) | Antibiotic susceptibility |
| --- | --- |
| CN(C)[C@@H]1C(O)=C(C(N)=O)C(=O)[C@@]2(O)C(O)=C3C(=O)c4c(O)cccc4[C@@](C)(O)[C@H]3C[C@@H]12 [TET, Tetracycline] | S |

test system: A. baumannii reference strain 19606; experiment: Antibiotic susceptibility profile; format: cell-based, Acinetobacter baumannii; parameters: key: Resistance; Intermediate; Susceptible; settings: strain 19606 (ATCC)
From the text: as §1, §2

| Structure (SMILES) | Antibiotic susceptibility |
| --- | --- |
| CN(C)[C@@H]1C(O)=C(C(N)=O)C(=O)[C@@]2(O)C(O)=C3C(=O)c4c(O)cccc4[C@@](C)(O)[C@H]3C[C@@H]12 [TET, Tetracycline] | I |

test system: A. baumannii reference strain AYE; experiment: Antibiotic susceptibility profile; format: cell-based, Acinetobacter baumannii; parameters: key: Resistance; Intermediate; Susceptible; settings: not given
From the text: as §1, §2

| Structure (SMILES) | Antibiotic susceptibility |
| --- | --- |
| CN(C)[C@@H]1C(O)=C(C(N)=O)C(=O)[C@@]2(O)C(O)=C3C(=O)c4c(O)cccc4[C@@](C)(O)[C@H]3C[C@@H]12 [TET, Tetracycline] | R |

test system: A. baumannii reference strain SDF; experiment: Antibiotic susceptibility profile; format: cell-based, Acinetobacter baumannii; parameters: key: Resistance; Intermediate; Susceptible; settings: not given
From the text: as §1, §2

| Structure (SMILES) | Antibiotic susceptibility |
| --- | --- |
| CN(C)[C@@H]1C(O)=C(C(N)=O)C(=O)[C@@]2(O)C(O)=C3C(=O)c4c(O)cccc4[C@@](C)(O)[C@H]3C[C@@H]12 [TET, Tetracycline] | I |
